Values quoted from earlier work, collected in patent publication US20250090522A1 (priority 2021, published 2025).
Entries after “also recorded” stand apart in the source; their conditions may differ. Where two headings read alike, the source gives them in different places.

Columns and labels:
[1] = 421 patients with allergy/asthma treated for six months; p<0.001 for all scales
H1 receptor = H1 receptor (Homo sapiens, UniProt P35367); conditions: acidic pH
[2] = not given; remark: listed apart in the source
[3] = test system: activator protein-1 (AP-1); conditions: H1 receptor-dependent and independent mechanisms
[4] = test system: chronic idiopathic urticaria (CIU); conditions: from 5 to 20 mg/day
[5] = test system: histamine induced wheal and flare
RANTES = conditions: dose-dependent manner
[6] = not given; remark: listed apart in the source
[7] = withdrawn from the US market in 1999
[8] = airway epithelial cells from nose and lung

H1 receptor, sequence (P35367 whole entry): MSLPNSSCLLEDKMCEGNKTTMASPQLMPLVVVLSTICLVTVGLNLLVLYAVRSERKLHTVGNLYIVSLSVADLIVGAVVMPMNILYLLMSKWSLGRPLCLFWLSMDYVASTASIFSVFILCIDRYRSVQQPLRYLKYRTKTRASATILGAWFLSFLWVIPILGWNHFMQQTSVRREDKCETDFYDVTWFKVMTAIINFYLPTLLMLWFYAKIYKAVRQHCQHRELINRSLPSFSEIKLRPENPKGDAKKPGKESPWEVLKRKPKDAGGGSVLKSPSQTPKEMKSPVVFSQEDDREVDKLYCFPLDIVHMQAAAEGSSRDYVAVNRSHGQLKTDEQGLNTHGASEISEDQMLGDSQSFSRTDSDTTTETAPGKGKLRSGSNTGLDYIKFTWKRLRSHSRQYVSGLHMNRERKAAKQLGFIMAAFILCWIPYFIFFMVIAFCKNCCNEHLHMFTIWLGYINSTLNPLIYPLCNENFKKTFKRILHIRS

SMILES: O=C(O)COCCN1CCN([C@H](c2ccccc2)c2ccc(Cl)cc2)CC1 [Levocetirizine]
- quality of life (SF-36) [1]: improved quality of life across all treatment domains; also recorded: independently improve quality of life
- enhanced receptor affinity over first generation mepyramine (H1 receptor): 5 ×
- time to steady state level (in vivo): 40 h
- HRV viral replication (human rhinovirus (HRV); [8]): inhibit
- HRV-induced ICAM-1 (human rhinovirus (HRV); [8]): inhibit
- HRV-induced cytokine expression (human rhinovirus (HRV); [8]): inhibit
- antiviral activity against human rhinovirus-16 (HRV-16) (human rhinovirus (HRV); cell and clinical science): Cell and clinical science-antiviral
- doses that can be safely administered ([2]; studies in humans): up to 30 mg/day
- activator protein-1 (AP-1) activity [3]: inhibit
- efficacy in CIU on titration [4]: Titratable with increasing efficacy
- potency among the five modern generation antihistamines ([5]; histamine wheal and flare data): most potent
- effectiveness versus fexofenadine ([5]; levocetirizine 5 mg per day versus fexofenadine 180 mg per day): more effective than fexofenadine
- tumor necrosis factor-a induced production of the chemokine RANTES (RANTES): decrease

SMILES: CC(C)(O)c1ccccc1CC[C@@H](SCC1(CC(=O)O)CC1)c1cccc(/C=C/c2ccc3ccc(Cl)cc3n2)c1 [Montelukast]
- risk of mental health side effects ([6]; compared to inhaled corticosteroids (ICS)): no increased risk
- risk of outpatient depression ([6]; patients with a psychiatric history, compared to ICS patients): decreased risk
- linear pharmacokinetics to (in vivo): pharmacokinetics to 50 mg/day
- drug interactions (with warfarin, theophylline, digoxin, terfenadine, oral contraceptives, or prednisone): no drug interactions
- doses administered without clinically relevant side effects ([2]; adult patients, 22 weeks): up to 200 mg/day
- doses administered without clinically relevant side effects ([2]; short-term studies, approximately one week): up to 900 mg/day

SMILES: COc1ccc(CCN2CCC(Nc3nc4ccccc4n3Cc3ccc(F)cc3)CC2)cc1 [astemizole]
- activity against MERSCoV (MERSCoV): astemizole was active against both
- activity against SARS-CoV (SARS-CoV): astemizole was active against both
- cardiac toxicity [7]: prolongation of the QTc interval
